The kinase profiling compilation of Christmann-Franck et al. (2016)

Key:
Experiment in all cases: KINOMEscan competition binding
Settings in all cases: compound 1.0 µM
FLT4 (human) = FLT4 (human) (UniProt P35916)
[1] = tested on: KIT (human), P10721 [D816V]
[2] = tested on: PIK3CA (human), P42336 [E545K]
CAMK1D (human) = CAMK1D (human) (UniProt Q8IU85)
EPHB6 (human) = EPHB6 (human) (UniProt O15197)
ERBB2 (human) = ERBB2 (human) (UniProt P04626)
FLT1 (human) = FLT1 (human) (UniProt P17948)
HIPK2 (human) = HIPK2 (human) (UniProt Q9H2X6)
RET (human) = RET (human) (UniProt P07949)
PRKX (human) = PRKX (human) (UniProt P51817)
MATK (human) = MATK (human) (UniProt P42679)
ULK1 (human) = ULK1 (human) (UniProt O75385)
EPHA1 (human) = EPHA1 (human) (UniProt P21709)
IRAK3 (human) = IRAK3 (human) (UniProt Q9Y616)
PHKG1 (human) = PHKG1 (human) (UniProt Q16816)
[3] = tested on: RET (human), P07949 [M918T]
PIK3CA (human) = PIK3CA (human) (UniProt P42336)
CAMKK1 (human) = CAMKK1 (human) (UniProt Q8N5S9)
INSR (human) = INSR (human) (UniProt P06213)
[4] = tested on: FLT3 (human), P36888 [N841I]
CAMK2D (human) = CAMK2D (human) (UniProt Q13557)
PRKG1 (human) = PRKG1 (human) (UniProt Q13976)
STK38L (human) = STK38L (human) (UniProt Q9Y2H1)
MARK1 (human) = MARK1 (human) (UniProt Q9P0L2)
SRPK3 (human) = SRPK3 (human) (UniProt Q9UPE1)
HIPK1 (human) = HIPK1 (human) (UniProt Q86Z02)
CDC2L2 (human) = CDC2L2 (human) (UniProt Q9UQ88)
[5] = tested on: RET (human), P07949 [V804L]
TESK1 (human) = TESK1 (human) (UniProt Q15569)
PKN3 (M.tuberculosis) = PKN3 (M.tuberculosis) (UniProt Q6P5Z2)
DSTYK (human) = DSTYK (human) (UniProt Q6XUX3)
DCLK3 (human) = DCLK3 (human) (UniProt Q9C098)
MAPK1 (human) = MAPK1 (human) (UniProt P28482)
[6] = tested on: PIK3CA (human), P42336 [M1043I]
STK11 (human) = STK11 (human) (UniProt Q15831)
[7] = target: JAK3 JH1 catalytic (human) (UniProt P52333)
STK32A (human) = STK32A (human) (UniProt Q8WU08)
CSNK2A1 (human) = CSNK2A1 (human) (UniProt P68400)
PKN1 (human) = PKN1 (human) (UniProt Q16512)
MAP3K5 (human) = MAP3K5 (human) (UniProt Q99683)
DAPK2 (human) = DAPK2 (human) (UniProt Q9UIK4)
TGFBR1 (human) = TGFBR1 (human) (UniProt P36897)
TRPM6 (human) = TRPM6 (human) (UniProt Q9BX84)

Sequence of HIPK2 (human) (Q9H2X6 whole entry, looked up): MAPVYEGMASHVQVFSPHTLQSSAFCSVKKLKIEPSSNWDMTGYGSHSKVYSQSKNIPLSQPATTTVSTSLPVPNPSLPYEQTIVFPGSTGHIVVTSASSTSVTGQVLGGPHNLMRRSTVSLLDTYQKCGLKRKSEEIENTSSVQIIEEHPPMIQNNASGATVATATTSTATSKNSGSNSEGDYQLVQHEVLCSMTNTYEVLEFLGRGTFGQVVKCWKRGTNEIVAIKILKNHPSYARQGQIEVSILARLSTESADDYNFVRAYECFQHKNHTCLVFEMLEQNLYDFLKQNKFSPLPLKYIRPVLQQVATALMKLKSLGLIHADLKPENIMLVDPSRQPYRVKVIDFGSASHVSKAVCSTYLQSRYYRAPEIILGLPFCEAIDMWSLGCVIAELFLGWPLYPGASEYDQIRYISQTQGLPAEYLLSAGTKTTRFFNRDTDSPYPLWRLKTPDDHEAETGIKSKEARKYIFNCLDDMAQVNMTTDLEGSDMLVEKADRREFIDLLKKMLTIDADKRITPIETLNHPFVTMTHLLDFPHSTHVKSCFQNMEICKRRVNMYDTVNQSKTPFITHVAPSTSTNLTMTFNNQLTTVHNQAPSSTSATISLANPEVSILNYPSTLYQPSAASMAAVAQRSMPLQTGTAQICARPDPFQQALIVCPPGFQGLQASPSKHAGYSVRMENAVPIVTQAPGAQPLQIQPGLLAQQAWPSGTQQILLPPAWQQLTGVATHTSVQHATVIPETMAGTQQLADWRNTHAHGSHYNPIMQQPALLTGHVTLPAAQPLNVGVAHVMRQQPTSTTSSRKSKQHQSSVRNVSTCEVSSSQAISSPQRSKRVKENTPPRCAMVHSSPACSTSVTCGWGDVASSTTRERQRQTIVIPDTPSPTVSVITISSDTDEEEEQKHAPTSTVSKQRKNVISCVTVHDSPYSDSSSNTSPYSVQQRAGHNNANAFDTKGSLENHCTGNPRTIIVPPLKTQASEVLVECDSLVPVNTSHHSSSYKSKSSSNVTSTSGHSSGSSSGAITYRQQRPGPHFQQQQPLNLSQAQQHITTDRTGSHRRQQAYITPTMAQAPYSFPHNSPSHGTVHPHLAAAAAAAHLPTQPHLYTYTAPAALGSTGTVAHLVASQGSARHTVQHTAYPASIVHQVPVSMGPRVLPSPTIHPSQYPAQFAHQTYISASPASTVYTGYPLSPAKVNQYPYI
Sequence of CAMKK1 (human) (Q8N5S9 whole entry, looked up): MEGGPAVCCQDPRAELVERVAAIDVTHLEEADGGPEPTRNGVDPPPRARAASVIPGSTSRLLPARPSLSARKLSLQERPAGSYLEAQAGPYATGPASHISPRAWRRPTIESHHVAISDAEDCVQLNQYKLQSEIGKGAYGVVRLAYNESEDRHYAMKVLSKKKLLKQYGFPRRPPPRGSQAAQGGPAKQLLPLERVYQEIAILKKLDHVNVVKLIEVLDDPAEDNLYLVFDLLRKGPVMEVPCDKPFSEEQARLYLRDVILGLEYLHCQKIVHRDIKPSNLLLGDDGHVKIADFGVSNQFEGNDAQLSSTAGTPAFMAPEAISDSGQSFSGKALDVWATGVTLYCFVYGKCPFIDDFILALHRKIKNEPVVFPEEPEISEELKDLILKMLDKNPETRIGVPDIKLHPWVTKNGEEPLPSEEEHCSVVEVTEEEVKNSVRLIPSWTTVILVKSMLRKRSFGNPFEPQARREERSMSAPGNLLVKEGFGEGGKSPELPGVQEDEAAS
Sequence of PRKG1 (human) (Q13976 whole entry, looked up): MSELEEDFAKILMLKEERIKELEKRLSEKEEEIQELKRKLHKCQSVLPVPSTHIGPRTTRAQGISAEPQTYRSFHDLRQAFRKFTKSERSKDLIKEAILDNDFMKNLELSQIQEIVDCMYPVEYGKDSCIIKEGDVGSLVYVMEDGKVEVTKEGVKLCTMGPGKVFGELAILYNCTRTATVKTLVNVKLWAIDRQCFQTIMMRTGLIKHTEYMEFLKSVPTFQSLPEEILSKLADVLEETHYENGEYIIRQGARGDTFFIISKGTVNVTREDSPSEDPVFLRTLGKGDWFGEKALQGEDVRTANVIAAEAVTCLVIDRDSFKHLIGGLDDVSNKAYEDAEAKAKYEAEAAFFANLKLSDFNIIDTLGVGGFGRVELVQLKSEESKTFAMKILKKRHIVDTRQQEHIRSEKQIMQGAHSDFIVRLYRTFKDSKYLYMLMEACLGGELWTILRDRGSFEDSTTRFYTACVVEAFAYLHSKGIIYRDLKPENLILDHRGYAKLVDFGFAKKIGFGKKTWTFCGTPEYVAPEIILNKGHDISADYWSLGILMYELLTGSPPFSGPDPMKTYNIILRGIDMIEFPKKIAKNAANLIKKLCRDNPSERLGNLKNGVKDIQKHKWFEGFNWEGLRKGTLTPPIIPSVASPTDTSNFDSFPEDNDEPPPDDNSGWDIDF
Sequence of DCLK3 (human) (Q9C098 whole entry, looked up): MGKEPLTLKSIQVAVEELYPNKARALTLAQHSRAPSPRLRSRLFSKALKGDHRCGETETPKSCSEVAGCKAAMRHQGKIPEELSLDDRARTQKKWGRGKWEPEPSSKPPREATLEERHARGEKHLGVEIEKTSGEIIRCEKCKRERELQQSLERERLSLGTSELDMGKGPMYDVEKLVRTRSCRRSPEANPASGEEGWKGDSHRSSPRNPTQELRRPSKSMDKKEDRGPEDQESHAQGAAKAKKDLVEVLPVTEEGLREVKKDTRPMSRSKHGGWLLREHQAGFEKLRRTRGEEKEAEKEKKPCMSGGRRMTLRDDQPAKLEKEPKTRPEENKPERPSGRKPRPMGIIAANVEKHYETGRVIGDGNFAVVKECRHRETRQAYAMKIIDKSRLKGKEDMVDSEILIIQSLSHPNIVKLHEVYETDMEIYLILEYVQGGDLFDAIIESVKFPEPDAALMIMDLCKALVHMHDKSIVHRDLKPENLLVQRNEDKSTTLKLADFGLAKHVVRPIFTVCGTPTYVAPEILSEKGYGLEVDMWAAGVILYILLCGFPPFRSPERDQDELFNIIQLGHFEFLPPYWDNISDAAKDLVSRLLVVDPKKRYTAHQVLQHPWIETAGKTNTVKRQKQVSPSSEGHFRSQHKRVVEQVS
Sequence of PIK3CA (human), P42336 [M1043I] (P42336 whole entry M1043I, looked up): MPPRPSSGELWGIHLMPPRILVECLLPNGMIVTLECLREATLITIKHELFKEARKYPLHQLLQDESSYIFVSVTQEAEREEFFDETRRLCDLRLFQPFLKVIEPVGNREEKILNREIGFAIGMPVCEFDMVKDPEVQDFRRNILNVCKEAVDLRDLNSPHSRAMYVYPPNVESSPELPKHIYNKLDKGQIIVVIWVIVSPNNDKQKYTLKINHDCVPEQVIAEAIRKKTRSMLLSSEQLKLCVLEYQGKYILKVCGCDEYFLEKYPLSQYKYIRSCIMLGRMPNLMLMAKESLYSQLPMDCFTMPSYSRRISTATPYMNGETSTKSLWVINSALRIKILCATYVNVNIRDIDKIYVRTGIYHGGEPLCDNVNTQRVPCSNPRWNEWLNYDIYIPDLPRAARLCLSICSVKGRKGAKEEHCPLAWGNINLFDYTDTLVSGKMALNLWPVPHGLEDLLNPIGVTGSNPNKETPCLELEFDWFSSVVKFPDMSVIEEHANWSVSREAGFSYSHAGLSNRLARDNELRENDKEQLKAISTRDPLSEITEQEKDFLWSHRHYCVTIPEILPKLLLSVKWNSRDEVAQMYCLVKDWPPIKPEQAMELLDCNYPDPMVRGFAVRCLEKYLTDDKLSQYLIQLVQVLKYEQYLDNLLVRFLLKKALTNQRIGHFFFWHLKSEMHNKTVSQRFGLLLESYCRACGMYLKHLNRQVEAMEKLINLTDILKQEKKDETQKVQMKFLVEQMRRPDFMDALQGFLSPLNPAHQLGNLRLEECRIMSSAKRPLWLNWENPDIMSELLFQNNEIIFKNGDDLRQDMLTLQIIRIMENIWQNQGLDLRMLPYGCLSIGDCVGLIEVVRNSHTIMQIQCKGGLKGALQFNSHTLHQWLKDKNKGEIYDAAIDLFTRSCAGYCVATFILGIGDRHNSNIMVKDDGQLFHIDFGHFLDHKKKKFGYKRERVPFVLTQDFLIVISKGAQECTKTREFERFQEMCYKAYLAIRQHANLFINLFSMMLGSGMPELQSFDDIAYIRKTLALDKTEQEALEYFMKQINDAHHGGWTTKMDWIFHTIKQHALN
Sequence of STK32A (human) (Q8WU08 whole entry, looked up): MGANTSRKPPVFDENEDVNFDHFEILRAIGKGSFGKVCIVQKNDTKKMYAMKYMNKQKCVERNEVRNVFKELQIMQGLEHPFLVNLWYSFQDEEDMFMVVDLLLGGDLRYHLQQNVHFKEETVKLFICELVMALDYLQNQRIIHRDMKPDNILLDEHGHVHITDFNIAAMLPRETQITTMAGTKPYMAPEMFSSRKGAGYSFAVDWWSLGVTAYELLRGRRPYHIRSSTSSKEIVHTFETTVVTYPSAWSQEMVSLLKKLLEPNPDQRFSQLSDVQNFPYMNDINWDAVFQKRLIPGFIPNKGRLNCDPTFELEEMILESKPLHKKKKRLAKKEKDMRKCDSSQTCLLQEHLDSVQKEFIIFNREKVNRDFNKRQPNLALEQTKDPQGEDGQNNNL
Sequence of MATK (human) (P42679 whole entry, looked up): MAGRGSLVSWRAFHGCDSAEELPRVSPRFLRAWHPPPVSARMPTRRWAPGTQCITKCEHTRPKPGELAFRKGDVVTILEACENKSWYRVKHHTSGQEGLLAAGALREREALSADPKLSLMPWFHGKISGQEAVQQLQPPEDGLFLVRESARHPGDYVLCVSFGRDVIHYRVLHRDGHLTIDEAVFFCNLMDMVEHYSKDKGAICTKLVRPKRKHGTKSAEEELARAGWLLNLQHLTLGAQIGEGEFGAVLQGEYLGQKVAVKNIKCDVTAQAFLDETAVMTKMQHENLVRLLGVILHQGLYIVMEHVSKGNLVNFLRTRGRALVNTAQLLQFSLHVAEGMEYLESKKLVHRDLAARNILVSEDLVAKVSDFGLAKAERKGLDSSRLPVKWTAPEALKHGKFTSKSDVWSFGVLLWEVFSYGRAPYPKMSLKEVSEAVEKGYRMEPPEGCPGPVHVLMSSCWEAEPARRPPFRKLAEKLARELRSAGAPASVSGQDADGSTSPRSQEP
Sequence of PIK3CA (human), P42336 [E545K] (P42336 whole entry E545K, looked up): as the sequence (P42336 whole entry M1043I, looked up) above, with E545K, I1043M counted along it

In the case of COCCNCCCn1c(C(=O)CF)c(-c2ccc(C)cc2)c2c(N)ncnc21, the kinase still bound, per cent of control (FLT4 (human)) is reported as 98%, the kinase still bound, per cent of control [1] is reported as 96% and the kinase still bound, per cent of control [2] is reported as 100%. It also gave a kinase still bound, per cent of control (CAMK1D (human)) of 100%, a kinase still bound, per cent of control (EPHB6 (human)) of 100% and a kinase still bound, per cent of control (ERBB2 (human)) of 100%. The kinase still bound, per cent of control (FLT1 (human)) was 96%, the kinase still bound, per cent of control (HIPK2 (human)) was 94% and the kinase still bound, per cent of control (RET (human)) was 88%. The kinase still bound, per cent of control (PRKX (human)) was 80%, the kinase still bound, per cent of control (MATK (human)) was 100% and the kinase still bound, per cent of control (ULK1 (human)) was 100%. The kinase still bound, per cent of control (EPHA1 (human)) was 94%, the kinase still bound, per cent of control (IRAK3 (human)) was 86% and the kinase still bound, per cent of control (PHKG1 (human)) was 100%. It also gave a kinase still bound, per cent of control [3] of 100%, a kinase still bound, per cent of control (PIK3CA (human)) of 100% and a kinase still bound, per cent of control (CAMKK1 (human)) of 100%. For the same compound, the kinase still bound, per cent of control (INSR (human)) was 84%, the kinase still bound, per cent of control [4] was 65% and the kinase still bound, per cent of control (CAMK2D (human)) was 82%. It also gave a kinase still bound, per cent of control (PRKG1 (human)) of 100%, a kinase still bound, per cent of control (STK38L (human)) of 92% and a kinase still bound, per cent of control (MARK1 (human)) of 90%. The kinase still bound, per cent of control (SRPK3 (human)) was 78%, the kinase still bound, per cent of control (HIPK1 (human)) was 96% and the kinase still bound, per cent of control (CDC2L2 (human)) was 100%. It also gave a kinase still bound, per cent of control [5] of 100%, a kinase still bound, per cent of control (TESK1 (human)) of 100% and a kinase still bound, per cent of control (PKN3 (M.tuberculosis)) of 100%. The kinase still bound, per cent of control (DSTYK (human)) was 100%, the kinase still bound, per cent of control (DCLK3 (human)) was 100% and the kinase still bound, per cent of control (MAPK1 (human)) was 100%. For the same compound, the kinase still bound, per cent of control [6] was 100%, the kinase still bound, per cent of control (STK11 (human)) was 98% and the kinase still bound, per cent of control [7] was 100%. It also gave a kinase still bound, per cent of control (STK32A (human)) of 94%, a kinase still bound, per cent of control (CSNK2A1 (human)) of 100% and a kinase still bound, per cent of control (PKN1 (human)) of 100%. For the same compound, the kinase still bound, per cent of control (MAP3K5 (human)) was 100%, the kinase still bound, per cent of control (DAPK2 (human)) was 97% and the kinase still bound, per cent of control (TGFBR1 (human)) was 89%. The kinase still bound, per cent of control (TRPM6 (human)) was 81%.
